Data on three compounds can be found in patent US20250127774A1, “COMPOUNDS FOR LABELLING NUCLEIC ACID AND USES THEREOF” (THE ROYAL INSTITUTION FOR THE ADVANCEMENT OF …, priority 2022, published 2025).

Data set [1] in a line: Photophysical properties of AO-495-tet-py before and after reaction with 5-norbornene-2 methanol. The settings on record: for φ: Rhodamine 6G standard; for λmax(Fluor.): excitation at 488 nm. The data set is classed as physicochemical. The protocol: The absorbance and fluorescence intensity (excitation at 488 nm) of AO-495-TET-py in different solvents (water, PBS and acetonitrile) was measured in a quartz cuvette (light path 1 cm) using a SpectraMax M5 plate reader (Molecular Devices, Sunnyvale, CA, USA). For AO-495-tet-py, samples for photophysical characterization were prepared directly from stock solution (10 mM in DMSO) by gradient dilution. For reaction of AO-495-tet-py with 5-norbornene-2 methanol, 20 μL AO-495-tet-py stock solution (in DMSO) was mixed with 2 μL 5-norbornene-2 methanol (80× excess) in room temperature for 24 h to ensure full conversion. 3 μL of the reaction mixture was diluted in to the indicated solvent to make a […] solution for following photophysical characterization. Rhodamine 6G in ethanol was used as fluorescence standard (φ=0.94).

The next data set has as its system Hela cells. Briefly: Pulse-chase labeling with EdU. The data set is classed as cell-based. The settings on record: 20 μM VdU 16 h, 1 μM PINK 4 h, 10 μM EdU 4 h. Here is the method:
To investigate the potential impact of VdU-PINK labeling on subsequent DNA synthesis, a pulse-chase experiment was performed with 5-ethynyl-2′-deoxyuridine (EdU) (FIG. 14, a). Hela cells were grown in cell media containing 20 μM VdU for 16 h, aspirated, treated with 1 μM PINK for 4 h, aspirated and treated with 10 μM EdU for 4 h. After fixation and DNA denaturation, cells were stained with AF488-azide (488 nm laser; emission 495-540 nm), and total cellular DNA was counterstained with Hoechst 33342 (405 nm laser; emission 410-480 nm). The “No VdU” cells were incubated with 1 μM PINK but not VdU. PINK+ and EdU+ “double positive” cells were observed as having co-localized nuclear staining. […] Therefore, VdU and PINK were used to track DNA synthesis and cellular division using live-cell, time-lapsed imaging. For optimal live-cell visualization, cells were incubated with 100 µM VdU for 23 h and subsequently labeled with 1 μM PINK for 4 h prior to imaging, allowing for the recording of full mitotic cycles over 2.5 hours (FIG. 14, b). Live cell images were acquired using a confocal microscope equipped with a stage-top incubator at 37° C. and at 5% CO2.
Pulse-Chase Labeling. In each well of a 24-well plate, one 10 mm diameter cover slide was placed. Hela cells were seeded at 1.2×10^5 cells per mL and allowed to settle overnight (22 h). […]

A short description of data set [2]: Photophysical measurements (quantum yield) of PINK and PINK-VdU-ox. The data set is classed as physicochemical. The settings on record: excitation 488 nm, Rhodamine 6G standard; PINK in aqueous and aprotic solvents, 6 depending on the solvent used. The protocol:
PINK (4) undergoes a highly fluorogenic and regioselective IEDDA reaction with VdU (5) to give “PINK-VdU-ox” (6) as a single isomer in a 76% isolated yield after 7d at 60° C. (Scheme 1). The slow rate of this non-templated reaction (Kapp=0.01 M^−1 s^−1, FIG. 5) is due to the combination of an unstrained terminal alkene and unactivated tetrazine.^[49] Over the course of the reaction, a ˜100-fold increase in fluorescence was observed (FIG. 3, c). With a quantum yield (φF)<0.2%, PINK (4) is essentially non-fluorescent in both aqueous and aprotic solvents (FIG. 6).
Highly viscous solvents, including glycerol and polyethylene glycol (PEG 200) induced higher fluorescence of 6, likely by restricting bond rotation and thus suppressing formation of a non-emissive, twisted intramolecular charge transfer (TICT) state.^[50]
Photophysical Measurements. Stock solutions (1-10 mM) of investigated compounds were prepared in DMSO and stored at −20° C. DMSO concentrations were less than 1% after dilution into the respective solvent/aqueous buffer. Measurements were collected on a SpectraMax M5 plate reader (Molecular Devices, Sunnyvale, CA, USA) in 1 cm path-length quartz cuvettes. Quantum yields were obtained by excitation at 488 nm using Rhodamine 6G ((=0.94) in EtOH (n=1.3624) as a fluorescent standard.^[1] Quantum yields were calculated using the equation I: […]

For the next data set, the system named is MV4-11 and Jurkat. Briefly: Resazurin single toxicity assay, summary over both cell lines. The data set is classed as cell-based. The note with it: Homo sapiens, after 24 h and 72h, read-out: IC50 summarised over both cell lines. Here is the method:
(§1) Resazurin assays were carried out to test the effectiveness of VdU, VdA and PINK alone in MV4-11 and Jurkat. The resazurin reduction assay is a colorimetric assay which allows to determine a cell's viability based on its metabolic activities.^26 When the cells are alive, the resazurin gets reduced by NADH into its resorufin form by cellular respiration, which is pink and highly fluorescent.^26 When the cells are dead or their metabolisms are impaired, the resazurin remains in its oxidized form, which is blue and has low fluorescence.^26 The cells can then be imaged using a spectrometer to determine how viable they are after each treatment.
Overall, VdU presented itself as a good candidate for the combination therapy with PINK due to its low toxicity in the two leukemia cell lines.
(§2) Resazurin Single toxicity assay. MV4-11 and Jurkat cells were seeded in 96-well plates at a density of 20 000 cells/well, in triplicates. The cells were treated with each nucleoside (VdU/VdA) alone diluted in fresh media in 1:4 serial dilutions (˜0.01% DMSO) at concentrations of 1000-0 μM. The cells were treated with PINK alone diluted in fresh media in 1:2 serial dilutions (˜1% DMSO) at concentration of 100-0 μM. The cells were then incubated for 24 h and 72h. 10 μL of 870 μM resazurin was added per well, and incubated for 2-5 hours. After incubation, the fluorescence intensity at 590 nm (excitation=560 nm) was measured using a SpectraMax M5 plate reader.
Background: Alamar Blue is a resazurin reagent that responds to reducing activity.

Data set [3] relates to MV4-11 cells. Briefly: Resazurin single toxicity assay. The data set is classed as cell-based. The settings on record: Homo sapiens, compound alone. The protocol:
as §1, §2

In data set [4] the test system is Jurkat cells. Description: Resazurin single toxicity assay. The data set is classed as cell-based. The note with it: Homo sapiens, compound alone. Here is the method: as §1, §2
The subject of data set [5] is MV4-11 cells. Briefly: Resazurin combination toxicity assay. The data set is classed as cell-based. The note with it: Homo sapiens. Here is the method:
(§3) From the single toxicity experiment, it was determined that the optimal subtoxic concentration of PINK to be used for the combination toxicity assays would be 1 μM. To test how effective the vinyl-nucleosides (VdU/VdA) in combination with PINK are at killing the cells compared to the vinyl-nucleosides alone, another resazurin reduction assay was carried out.
(§4) To determine if it is possible to treat the leukemia cells with the vinyl-nucleosides and PINK simultaneously, instead of adding them sequentially, another resazurin reduction assay using the same concentrations of each compound as in the previous combination experiment was carried out, where instead the vinyl-nucleosides and PINK were added on the same day instead of on two consecutive days.
(§5) Resazurin Combination toxicity assays. MV4-11, MOLM-13 and Jurkat cells were seeded in 96-well plates at a density of 20 000 cells/well, 25 000 cells/well and 30 000 cells/well, respectively, in triplicates. For the sequential addition, the cells were first treated with the nucleosides (VdU/VdA) diluted in fresh media in 1:4 serial dilutions (˜0.01% DMSO) at concentrations of 500-0 μM, and incubated overnight. 24h post nucleoside addition, the cells were treated with 1 μM PINK diluted in fresh media (˜1% DMSO), and incubated for 24-72h. The cells were treated with resazurin, incubated and measured, as described above. For the simultaneous addition, the cells were treated with nucleosides and PINK on the same day at the same concentrations as describes above, and incubated for 24-72h.

For data set [6], the system named is Jurkat cells. Description: Resazurin combination toxicity assay. The data set is classed as cell-based. The note with it: Homo sapiens. Here is the method: as §3, §4, §5
The test system of data set [7] is MOLM-13 cells. Briefly: Resazurin combination toxicity assay. The data set is classed as cell-based, human. The note with it: variable VdU/VdA alone or with 1 μM PINK added 24 h post nucleoside addition, read-out: IC50 value (48 h) for sequential addition. Here is the method:
as §3, §5

Data set [8] has as its system MOLM-13 cells. Description: Cell counting assay (Trypan Blue). The data set is classed as cell-based, human. The settings on record: MOLM-13, 5 μM nucleoside, 1 μM PINK. Here is the method:
To confirm the cytotoxicity results obtained from the resazurin assays, a cell counting assay was conducted using Trypan Blue. It is an azo dye allows to discriminate between viable cells and dead cells, since dead cells will take in the dye, while viable cells will remain white. 28 From the resazurin assays, and after some optimization based on cell sensitivity to the vinyl-nucleosides, it was determined that […] and 5 μM of vinyl-nucleosides alone and in combination with 1 μM of PINK were two interesting concentrations to explore in Jurkat, MV4-11, and MOLM-13 cells. Cells were incubated with 5 μM or 10 μM of each nucleoside overnight (Day 0), and 1 μM of PINK was added for the combinations and PINK alone 24h post nucleoside incubation (Day 1). The cells were counted every 24h.
Cell Counting Assay. Jurkat, MV4-11 and MOLM-13 cells were seeded in 12-well plates at a density of 500 000 cells/mL, 175 000 cells/mL and 375 000 cells/mL, respectively, in duplicates. The cells were incubated overnight in fresh media containing 10 μM (Jurkat) or 5 μM (MV4-11 and MOLM-13) of each nucleoside (˜0.01% DMSO). 24h post nucleoside addition, 1 μM of PINK (˜0.01% DMSO) were added to the respective wells and incubated for 24 h. The cells were counted using a cell counter (BIO RAD TC20) to determine the percentage of viable cells and the cell concentration. The cells were counted every 24h using Trypan Blue in a 1:1 ratio.

Setting [9] is: 48 h, variable VdU/VdA alone or with 1 μM PINK added on the same day, read-out: IC50 value (48 h) for simultaneous addition.
The mark [10] stands for this setting: variable VdU/VdA alone or with 1 μM PINK added 24 h post nucleoside addition, read-out: IC50 value (48 h) for sequential addition.

Counter-ions that a name gives are not always drawn. Like-named read-outs stand apart in the source and are kept apart here.

On to `CN(C)c1ccc2cc3ccc(N(C)C)cc3[n+](CCCc3nnc(-c4ccccn4)nn3)c2c1` [AO-495-tet-py, (10-(6-(pyridin-2-yl)-1,2,4,5-tetrazin-3-yl)propyl)-3,6-bis(dimethylamino)acridinium trifluoroacetate)], for which, in data set [1] (MeCN), the “λmax(Abs)” value was found to be 498 nm, the φ amounted to 0.0075 and the “λmax(Fluor.)” value came out at 525 nm. Also, in [1] (PBS), the “λmax(Abs)” value was 500 nm, the φ is 0.0148 and the “λmax(Fluor.)” value is given as 525 nm. In [1] (Water), the “λmax(Abs)” value is 500 nm, the φ is 0.0063 and the “λmax(Fluor.)” value is recorded as 525 nm.
As to `Cc1cc(-c2cn([C@H]3C[C@H](O)[C@@H](CO)O3)c(=O)[nH]c2=O)c(-c2ccc3cc4ccc(N(C)C)cc4nc3c2)nn1` [PINK-VdU-ox], the “impact of VdU-PINK labeling on subsequent DNA synthesis / cell cycle” value in the data set on Hela cells is given as “did not cause cell cycle arrest”. Also, the “quantum yield (φF)” value in data set [2] is recorded as 3.5-19%.
As a reminder, the IC50 is the concentration needed to halve the response being measured. For the compound `C=Cc1cn([C@H]2C[C@H](O)[C@@H](CO)O2)c2ncnc(N)c12` [VdA, 7-vinyl-7-deaza-2′-deoxyadenosine], the half-maximal inhibitory concentration (IC50) in the data set with MV4-11 and Jurkat is about 50 µM; with MV4-11 cells [3] (MV4-11, 24 h incubation, read-out: IC50 value (24 h)), 32 µM; with MV4-11 cells [3] (MV4-11, 72 h incubation, read-out: IC50 value (72 h)), 58 µM; with Jurkat cells [4] (24 h incubation, read-out: IC50 value (24 h)) it was 68 µM; in the data set with Jurkat cells [4] (72 h incubation, read-out: IC50 value (72 h)), 46 µM; in the data set with MV4-11 cells [5] (setting [9]), 37 µM. Besides, the IC50 worked out at 25 µM in the data set with MV4-11 cells [5] (setting [10]); 72 µM in the data set with Jurkat cells [6] (setting [9]); 46 µM with Jurkat cells [6] (setting [10]); 3000 nM with MOLM-13 cells [7] (Homo sapiens, MOLM-13, MOLM-13); 2600 nM with MOLM-13 cells [7] (MOLM-13). Further, the “cell concentration (cell growth)” value in the data set with MOLM-13 cells [8] was “seem to inhibit cell growth”.
